The source of these data is patent US10106534B2 (CELGENE QUANTICEL RESEARCH, INC., priority 2014, dated 2018).

Bounds are passed on as bounds.

By IC50 is commonly meant the concentration needed to halve the response being measured. Read a high IC50 as lower potency.

The target of one assay is JMJD2C (Homo sapiens (Human), UniProt Q9H3R0). In words: In vitro enzyme inhibition assay for JMJD2C activity (TR-FRET). It counts as biochemical. An outline of the steps: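 Baculovirus JMJD2C (AA 2-372), 0.3 nM, with 300 nM biotin-H3K9me3 peptide and 2 μM α-ketoglutarate in HEPES pH 7.3 containing Fe(II) and ascorbate, 30 min at room temperature, 11-point dilutions. H3K9me2 product by TR-FRET (Eu-antibody/streptavidin-APC, 665/615 ratio); IC50 fitted.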
JMJD2C, sequence (Q9H3R0 2-372): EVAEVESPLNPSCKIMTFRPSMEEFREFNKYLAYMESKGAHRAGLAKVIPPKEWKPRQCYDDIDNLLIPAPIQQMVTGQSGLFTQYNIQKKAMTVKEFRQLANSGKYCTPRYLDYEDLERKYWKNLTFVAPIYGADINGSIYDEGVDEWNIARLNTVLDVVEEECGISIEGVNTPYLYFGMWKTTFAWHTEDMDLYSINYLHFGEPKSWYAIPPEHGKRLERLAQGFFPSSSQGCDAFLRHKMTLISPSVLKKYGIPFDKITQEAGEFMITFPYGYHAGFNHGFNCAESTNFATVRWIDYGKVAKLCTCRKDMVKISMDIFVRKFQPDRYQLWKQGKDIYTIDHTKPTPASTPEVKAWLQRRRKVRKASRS

For the next assay, the target named is JMJD3 (Homo sapiens, UniProt O15054). In words: In vitro enzyme inhibition assay for JMJD3 activity (TR-FRET). It counts as biochemical. In general terms: In TR-FRET formats the signal depends on donor and acceptor labels being close together.
For assay [1], the system named is KYSE-150 esophageal carcinoma cell line. The experiment in a line: In vitro cell-based assay: cellular proliferation via BrdU incorporation (ELISA). Also noted: species or system human. Conditions: Homo sapiens, KYSE-150, 168 hours compound incubation. Put shortly:
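KYSE-150 cells (JMJD2C-amplified; SMAD4 and TP53 mutant), 2,000/well, were treated after overnight attachment with an 11-point series (100 μM to 2 nM) for 168 h. Proliferation was read by BrdU ELISA (2 h labelling, anti-BrdU-peroxidase, TMB, 450 nm) and IC50 fitted.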
For orientation: Dividing cells build labelled thymidine or BrdU into new DNA.

As for `CN(c1ccc(N2CCOCC2)cc1)c1ccc2c(c1)CCC[C@H]2CNc1cnccc1C(=O)O` [Example 170, 3-({[(1R)-6-{methyl[4-(morpholin-4-yl)phenyl]amino}-1,2,3,4-tetrahydronaphthalen-1-yl]methyl}amino)pyridine-4-carboxylic acid], the IC50 at JMJD2C was 100 to 1000 nM; on JMJD3 it was 1000 to 10000 nM; in assay [1] it was ≤ 100 nM.

Regarding `CN(c1ccc(N2CCC2)cc1)c1ccc2c(c1)OCC[C@H]2CNc1cnccc1C(=O)O` [Example 183, 3-({[(4R)-7-{[4-(azetidin-1-yl)phenyl](methyl)amino}-3,4-dihydro-2H-1-benzopyran-4-yl]methyl}amino)pyridine-4-carboxylic acid], the IC50 against JMJD2C was 100 to 1000 nM; against JMJD3 it was 1000 to 10000 nM; in assay [1] it was ≤ 100 nM.

With `CN(c1ccc(OC(F)F)cc1)c1ccc2c(c1)CCC[C@H]2CNc1cnccc1C(=O)O` [Example 184, 3-({[(1R)-6-{[4-(difluoromethoxy)phenyl](methyl)amino}-1,2,3,4-tetrahydronaphthalen-1-yl]methyl}amino)pyridine-4-carboxylic acid], the IC50 was 100 to 1000 nM against JMJD2C, 1000 to 10000 nM against JMJD3 and ≤ 100 nM in assay [1].

As for `CCOc1ccc(N(C)c2ccc3c(c2)CCC[C@H]3CNc2cnccc2C(=O)O)cc1` [Example 185, 3-({[(1R)-6-[(4-ethoxyphenyl)(methyl)amino]-1,2,3,4-tetrahydronaphthalen-1-yl]methyl}amino)pyridine-4-carboxylic acid], the results for the IC50 (against JMJD2C; against JMJD3; in assay [1]) were 100 to 1000 nM, 1000 to 10000 nM and ≤ 100 nM, respectively.

For the compound `CC(C)c1ccc(N(C)c2ccc3c(c2)OCC[C@H]3CNc2cnccc2C(=O)O)cc1` [Example 187, 3-({[(4R)-7-{methyl[4-(propan-2-yl)phenyl]amino}-3,4-dihydro-2H-1-benzopyran-4-yl]methyl}amino)pyridine-4-carboxylic acid], the IC50 is 100 to 1000 nM against JMJD2C, 1000 to 10000 nM against JMJD3 and ≤ 100 nM in assay [1].

For the compound `CN(c1ccc(OC(F)F)cc1)c1ccc2c(c1)OCC[C@H]2CNc1cnccc1C(=O)O` [Example 190, 3-({[(4R)-7-{[4-(difluoromethoxy)phenyl](methyl)amino}-3,4-dihydro-2H-1-benzopyran-4-yl]methyl}amino)pyridine-4-carboxylic acid], the values for the IC50 (at JMJD2C; at JMJD3; in assay [1]) were 100 to 1000 nM, 1000 to 10000 nM and ≤ 100 nM, respectively.

As for `CN(c1ccccc1)c1ccc2c(c1)CCC[C@H]2CNc1nnccc1C(=O)O` [Example 191, 3-({[(1R)-6-[methyl(phenyl)amino]-1,2,3,4-tetrahydronaphthalen-1-yl]methyl}amino)pyridazine-4-carboxylic acid], the IC50 on JMJD2C is 100 to 1000 nM; against JMJD3, 1000 to 10000 nM; in assay [1], ≤ 100 nM.

As to `CN(c1ccc(CC(F)(F)F)cc1)c1ccc2c(c1)OCC[C@H]2CNc1cnccc1C(=O)O` [Example 192, 3-({[(4R)-7-{methyl[4-(2,2,2-trifluoroethyl)phenyl]amino}-3,4-dihydro-2H-1-benzopyran-4-yl]methyl}amino)pyridine-4-carboxylic acid], the values for the IC50 (on JMJD2C; against JMJD3; in assay [1]) were 100 to 1000 nM, 1000 to 10000 nM and ≤ 100 nM, respectively.

On to `CN(c1ccc(-n2ccnc2)cc1)c1ccc2c(c1)CCC[C@H]2CNc1cnccc1C(=O)O` [Example 193, 3-({[(1R)-6-{[4-(1H-imidazol-1-yl)phenyl](methyl)amino}-1,2,3,4-tetrahydronaphthalen-1-yl]methyl}amino)pyridine-4-carboxylic acid], for which the figures for the IC50 (on JMJD2C; against JMJD3; in assay [1]) were 100 to 1000 nM, 1000 to 10000 nM and 100 to 1000 nM, respectively.

For the compound `CN(c1ccc(-n2ccnc2)cc1)c1ccc2c(c1)OCC[C@H]2CNc1cnccc1C(=O)O` [Example 194, 3-({[(4R)-7-{[4-(1H-imidazol-1-yl)phenyl](methyl)amino}-3,4-dihydro-2H-1-benzopyran-4-yl]methyl}amino)pyridine-4-carboxylic acid], the IC50 fell in the range of 100 to 1000 nM against JMJD2C, 1000 to 10000 nM on JMJD3 and 1000 to 10000 nM in assay [1].

Take `CN(c1ccc(C2CCOCC2)cc1)c1ccc2c(c1)OCC[C@H]2CNc1cnccc1C(=O)O` [Example 202, 3-({[(4R)-7-{methyl[4-(oxan-4-yl)phenyl]amino}-3,4-dihydro-2H-1-benzopyran-4-yl]methyl}amino)pyridine-4-carboxylic acid]: the IC50 at JMJD2C was 100 to 1000 nM; against JMJD3, 1000 to 10000 nM; in assay [1], ≤ 100 nM.

With `CN(c1ccc(OCC2CC2)cc1)c1ccc2c(c1)CCC[C@H]2CNc1cnccc1C(=O)O` [Example 209, 3-({[(1R)-6-{[4-(cyclopropylmethoxy)phenyl](methyl)amino}-1,2,3,4-tetrahydronaphthalen-1-yl]methyl}amino)pyridine-4-carboxylic acid], the IC50 against JMJD2C is 100 to 1000 nM; at JMJD3 it was 1000 to 10000 nM; in assay [1], ≤ 100 nM.
